Test results from PubChem BioAssay AID743175 (Broad Institute, 2013).
Active and inactive are the calls of the source. No rule for the calls is given here.

Test system: not listed separately
Test: inhibitor activity on non-replicating M. tuberculosis, dose response, plate reader, dry powder (AID 743175)
Conditions: Mycobacterium tuberculosis non-replicating, growth inhibition plate reader; at 23.5 µM (top of the series)

SMILES | activity change, negative = inhibition
CNC[C@H]1OCCCC[C@@H](C)Oc2ccc(NC(=O)CCCN(C)C)cc2C(=O)N([C@H](C)CO)C[C@@H]1C | 0.469% (inactive)
Cc1noc(C)c1NC(=O)Nc1ccc2c(c1)C(=O)N(C)[C@H]1CC[C@@H](CC(=O)NCc3ccc(Cl)cc3)O[C@@H]1CO2 | -7.13% (inactive)
C[C@H](C(=O)N(C)C[C@@H]1OCc2ccccc2-c2ccccc2C(=O)N([C@H](C)CO)C[C@H]1C)c1ccccc1 | -2.02% (inactive)
Cc1noc(C)c1NC(=O)Nc1ccc2c(c1)C(=O)N(C)[C@@H]1CC[C@@H](CC(=O)NCc3ccc(Cl)cc3)O[C@H]1CO2 | -4.47% (inactive)

Same assay, conditions: Mycobacterium tuberculosis non-replicating, growth inhibition plate reader; at 26 µM (top of the series)

SMILES | activity change, negative = inhibition
COc1ccccc1C#Cc1ccc([C@@H]2[C@@H](C#N)N(C(=O)C3CC3)[C@@H]2CO)cc1 | -12.4% (inactive)
C[C@H](C(=O)N(C)C[C@H]1OCc2ccccc2-c2ccccc2C(=O)N([C@H](C)CO)C[C@@H]1C)c1ccccc1 | -6.85% (inactive)
COc1ccccc1C#Cc1ccc([C@H]2[C@@H](C#N)N(C(=O)C3CC3)[C@@H]2CO)cc1 | -31.8% (inactive)
O=C(C[C@@H]1C[C@@H]2c3cc(NC(=O)c4cccnc4)ccc3O[C@@H]2[C@H](CO)O1)NCC(F)(F)F | -0.328% (inactive)
COc1ccccc1C#Cc1ccc([C@H]2[C@@H](CO)N(C(=O)C3CC3)[C@H]2C#N)cc1 | -16.4% (inactive)
C[C@H](C(=O)N(C)C[C@@H]1OCc2ccccc2-c2ccccc2C(=O)N([C@H](C)CO)C[C@@H]1C)c1ccccc1 | -7.59% (inactive)
C[C@@H]1CN([C@@H](C)CO)C(=O)c2ccccc2-c2ccccc2CO[C@@H]1CN(C)C(=O)[C@H](C)c1ccccc1 | 5.94% (inactive)
O=C(C[C@H]1C=C[C@@H](NC(=O)Nc2cc(F)ccc2F)[C@H](CO)O1)NCc1ccc2c(c1)OCO2 | -2.19% (inactive)
C[C@H](C(=O)N(C)C[C@H]1OCc2ccccc2-c2ccccc2C(=O)N([C@@H](C)CO)C[C@@H]1C)c1ccccc1 | -9.24% (inactive)
C[C@H](C(=O)N(C)C[C@@H]1OCc2ccccc2-c2ccccc2C(=O)N([C@@H](C)CO)C[C@H]1C)c1ccccc1 | 1.76% (inactive)
CNC[C@H]1OCCCC[C@H](C)Oc2ccc(NC(=O)CCCN(C)C)cc2C(=O)N([C@H](C)CO)C[C@@H]1C | 0.293% (inactive)
CNC[C@H]1OCCCC[C@H](C)Oc2ccc(NC(=O)CCCN(C)C)cc2C(=O)N([C@@H](C)CO)C[C@@H]1C | -0.478% (inactive)
COCCNC(=O)C[C@H]1C[C@@H]2c3cc(NC(=O)Nc4ccc(C(F)(F)F)cc4)ccc3O[C@@H]2[C@H](CO)O1 | -0.81% (inactive)
Cc1noc(C)c1NC(=O)Nc1ccc2c(c1)C(=O)N(C)[C@@H]1CC[C@H](CC(=O)NCc3ccc(Cl)cc3)O[C@@H]1CO2 | -6.75% (inactive)
COCCNC(=O)C[C@@H]1C[C@H]2c3cc(NC(=O)Nc4ccc(C(F)(F)F)cc4)ccc3O[C@H]2[C@@H](CO)O1 | 2.69% (inactive)
O=C(C[C@H]1C=C[C@@H](NC(=O)Nc2cc(F)ccc2F)[C@@H](CO)O1)NCc1ccc2c(c1)OCO2 | 4.07% (inactive)
O=C(C[C@@H]1C[C@H]2c3cc(NC(=O)c4cccnc4)ccc3O[C@H]2[C@H](CO)O1)NCC(F)(F)F | 4.14% (inactive)
CNC[C@@H]1OCCCC[C@@H](C)Oc2ccc(NC(=O)CCCN(C)C)cc2C(=O)N([C@@H](C)CO)C[C@H]1C | 6.36% (inactive)
O=C(C[C@H]1C=C[C@H](NC(=O)Nc2cc(F)ccc2F)[C@H](CO)O1)NCc1ccc2c(c1)OCO2 | 2.59% (inactive)
Cc1noc(C)c1NC(=O)Nc1ccc2c(c1)C(=O)N(C)[C@H]1CC[C@@H](CC(=O)NCc3ccc(Cl)cc3)O[C@H]1CO2 | 0.473% (inactive)
COCCNC(=O)C[C@H]1C[C@@H]2c3cc(NC(=O)Nc4ccc(C(F)(F)F)cc4)ccc3O[C@@H]2[C@@H](CO)O1 | -5.53% (inactive)
O=C(C[C@H]1C[C@@H]2c3cc(NC(=O)c4cccnc4)ccc3O[C@@H]2[C@@H](CO)O1)NCC(F)(F)F | 2.49% (inactive)
CNC[C@@H]1OCCCC[C@@H](C)Oc2ccc(NC(=O)CCCN(C)C)cc2C(=O)N([C@H](C)CO)C[C@H]1C | -0.491% (inactive)
O=C(C[C@@H]1C=C[C@@H](NC(=O)Nc2cc(F)ccc2F)[C@H](CO)O1)NCc1ccc2c(c1)OCO2 | -1.51% (inactive)
C[C@@H]1CN([C@H](C)CO)C(=O)c2ccccc2-c2ccccc2CO[C@@H]1CN(C)C(=O)[C@H](C)c1ccccc1 | -3.88% (inactive)
C[C@H](C(=O)N(C)C[C@H]1OCc2ccccc2-c2ccccc2C(=O)N([C@@H](C)CO)C[C@H]1C)c1ccccc1 | -0.472% (inactive)
COCCNC(=O)C[C@H]1C[C@H]2c3cc(NC(=O)Nc4ccc(C(F)(F)F)cc4)ccc3O[C@H]2[C@H](CO)O1 | 5.95% (inactive)

Same assay, conditions: Mycobacterium tuberculosis non-replicating, growth inhibition plate reader; at 38 µM (top of the series)

SMILES | activity change, negative = inhibition
O=C(OCCCCN1C(=O)c2ccccc2C1=O)c1ccc(Br)o1 | -2.9% (inactive)
C=CCn1c(NC(=O)c2ccccc2)nc2ccccc21 | -76.7% (inactive)
O=C(OCc1ccc(Cl)c(Cl)c1)c1ccccn1 | -7.55% (inactive)
NC(=O)COc1ccc2cc(-c3ccc(F)cc3)c(=O)oc2c1 | -7.91% (inactive)
CCOC(=O)c1c(C)n(C)c2ccc(OC(C)C(=O)OC)cc12 (centres undefined) | -6.52% (inactive)
CC(=O)c1ccc(NC(=O)c2cc(CC(C)C)on2)cc1 | -14.7% (inactive)
Fc1ccc(-c2ccc(CNCc3ccccn3)o2)cc1Cl | -52% (inactive)

Test system: Mycobacterium tuberculosis non-replicating, growth inhibition plate reader
Test: as above
Conditions: not given

SMILES | AC90
CCOC(=O)COc1ccc2c(c1)C(=O)CC1(CCCCC1)O2 | > 38 µM (inactive)
CCOC(=O)COc1ccc2c(=O)cc(-c3ccccc3)oc2c1 | > 38 µM (inactive)
CCOC(=O)COc1ccc2c(=O)c(-c3ccccc3)coc2c1 | > 38 µM (inactive)
COc1ccccc1C#Cc1ccc([C@@H]2[C@@H](C#N)N(C(=O)C3CC3)[C@H]2CO)cc1 | > 26 µM (inactive)
CCc1ccc(OCCCC(=O)NCc2ccco2)cc1 | > 38 µM (inactive)
O=C(NC1CC2CCC1C2)C1COc2ccccc2O1 (centres undefined) | > 38 µM (inactive)
c1ccc(Nc2nc(-c3ccccn3)cs2)cc1 | > 38 µM (inactive)
CCOC(=O)c1cc(-c2csc(COc3ccccc3)n2)on1 | > 38 µM (inactive)
O=C(NCc1cccs1)c1ccc(Br)o1 | > 38 µM (inactive)
COc1ccccc1C#Cc1ccc([C@H]2[C@H](C#N)N(C(=O)C3CC3)[C@H]2CO)cc1 | > 26 µM (inactive)
NC1CCN(c2c(F)cc3c(=O)c(C(=O)O)cn(C4CC4)c3c2Cl)C1 (centres undefined) | 2.94 µM
CCOCCOC(=O)COc1ccc2c(-c3ccccc3)cc(=O)oc2c1 | > 38 µM (inactive)
O=C(COc1c(Br)cc(Br)c2cccnc12)N1CCCCC1 | 6.33 µM
O=C(COc1cccc2ccccc12)Nc1nc2ccccc2[nH]1 | > 38 µM (inactive)
COC(=O)COc1ccc2c(=O)c(Oc3ccccc3)c(C)oc2c1 | > 38 µM (inactive)
COc1ccccc1C#Cc1ccc([C@H]2[C@@H](CO)N(C(=O)C3CC3)[C@H]2C#N)cc1 | > 26 µM (inactive)
CCOC(=O)COc1ccc(C(=O)NC2CCCCC2)cc1 | > 38 µM (inactive)
CCOC(=O)c1sc(NC(=O)CCN2CCOCC2)c(C(=O)OCC)c1C | > 38 µM (inactive)
Brc1c(-c2ccc3c(c2)OCO3)nc2ncccn12 | 32.3 µM
Cc1cccc(Cn2ccc(NC(=O)c3ccc4c(c3)OCO4)n2)c1 | 20 µM
COc1ccccc1C#Cc1ccc([C@@H]2[C@H](C#N)N(C(=O)C3CC3)[C@H]2CO)cc1 | > 23.5 µM (inactive)
CCCCN(C/C=C/c1ccccc1OC)Cc1ccccc1 | > 38 µM (inactive)
Cc1cccc(C)c1N1C(=O)CC(N2CCSCC2)C1=O (centres undefined) | 5.72 µM
COC(=O)COc1cccc(NC(=O)c2ccc(Cl)cc2)c1 | > 38 µM (inactive)
O=C(Nc1nc2ccccc2[nH]1)c1cccc(Cl)c1 | 11.4 µM
Cc1nnc(NC(=O)c2ccc3ccccc3c2)o1 | 1.34 µM
